# ChEMBL document CHEMBL2439971, “Design, synthesis and antiproliferative evaluation of fluorenone analogs with DNA topoisomerase I inhibitory properties” (Bioorg Med Chem, 2013)
# The source made the active and inactive calls. The rule behind the calls is not given here.
# Assays:
# [1] = Cytotoxicity against human EKVX cells at 10 uM after 48 hrs by sulforhodamine B assay relative to control; assay type: functional
# HCT-116 = test: Cytotoxicity against human HCT116 cells at 10 uM after 48 hrs by sulforhodamine B assay relative to control; assay type: functional
# LOX IMVI = test: Cytotoxicity against human LOXIMVI cells at 10 uM after 48 hrs by sulforhodamine B assay relative to control; assay type: functional
# SK-MEL-2 = test: Cytotoxicity against human SK-MEL-2 cells at 10 uM after 48 hrs by sulforhodamine B assay relative to control; assay type: functional
# SK-MEL-28 = test: Cytotoxicity against human SK-MEL-28 cells at 10 uM after 48 hrs by sulforhodamine B assay relative to control; assay type: functional
# OVCAR-4 = test: Cytotoxicity against human OVCAR4 cells at 10 uM after 48 hrs by sulforhodamine B assay relative to control; assay type: functional
# IGROV-1 = test: Cytotoxicity against human IGROV1 cells at 10 uM after 48 hrs by sulforhodamine B assay relative to control; assay type: functional
# M14 = test: Cytotoxicity against human M14 cells at 10 uM after 48 hrs by sulforhodamine B assay relative to control; assay type: functional
# KM12 = test: Cytotoxicity against human KM12 cells at 10 uM after 48 hrs by sulforhodamine B assay relative to control; assay type: functional
# RXF 393 = test: Cytotoxicity against human RXF393 cells at 10 uM after 48 hrs by sulforhodamine B assay relative to control; assay type: functional
# SK-MEL-5 = test: Cytotoxicity against human SK-MEL-5 cells at 10 uM after 48 hrs by sulforhodamine B assay relative to control; assay type: functional
# PC-3 [2] = test: Cytotoxicity against human PC3 cells at 10 uM after 48 hrs by sulforhodamine B assay relative to control; assay type: functional
# NCI/ADR-RES = test: Cytotoxicity against human NCI/ADR-RES cells at 10 uM after 48 hrs by sulforhodamine B assay relative to control; assay type: functional
# UACC-257 = test: Cytotoxicity against human UACC257 cells at 10 uM after 48 hrs by sulforhodamine B assay relative to control; assay type: functional
# BT-549 = test: Cytotoxicity against human BT549 cells at 10 uM after 48 hrs by sulforhodamine B assay relative to control; assay type: functional
# UACC-62 = test: Cytotoxicity against human UACC62 cells at 10 uM after 48 hrs by sulforhodamine B assay relative to control; assay type: functional
# MOLT-4 = test: Cytotoxicity against human MOLT4 cells at 10 uM after 48 hrs by sulforhodamine B assay relative to control; assay type: functional
# T47D = test: Cytotoxicity against human T47D cells at 10 uM after 48 hrs by sulforhodamine B assay relative to control; assay type: functional
# HT-29 = test: Cytotoxicity against human HT-29 cells at 10 uM after 48 hrs by sulforhodamine B assay relative to control; assay type: functional
# ACHN = test: Cytotoxicity against human ACHN cells at 10 uM after 48 hrs by sulforhodamine B assay relative to control; assay type: functional
# MCF7 = test: Cytotoxicity against human MCF7 cells at 10 uM after 48 hrs by sulforhodamine B assay relative to control; assay type: functional
# OVCAR-3 = test: Cytotoxicity against human OVCAR3 cells at 10 uM after 48 hrs by sulforhodamine B assay relative to control; assay type: functional
# HL-60(TB) = test: Cytotoxicity against human HL-60(TB) cells at 10 uM after 48 hrs by sulforhodamine B assay relative to control; assay type: functional
# NCI-H322M = test: Cytotoxicity against human NCI-H322M cells at 10 uM after 48 hrs by sulforhodamine B assay relative to control; assay type: functional
# NCI-H226 = test: Cytotoxicity against human NCI-H226 cells at 10 uM after 48 hrs by sulforhodamine B assay relative to control; assay type: functional
# COLO 205 = test: Cytotoxicity against human COLO205 cells at 10 uM after 48 hrs by sulforhodamine B assay relative to control; assay type: functional
# 786-0 = test: Cytotoxicity against human 786-0 cells at 10 uM after 48 hrs by sulforhodamine B assay relative to control; assay type: functional
# PC-3 [3] = test: Cytotoxicity against human PC3 cells after 48 hrs by sulforhodamine B assay; assay type: functional, cell-based; settings: PC-3, 48 h
# OVCAR-5 = test: Cytotoxicity against human OVCAR5 cells at 10 uM after 48 hrs by sulforhodamine B assay relative to control; assay type: functional
# NCI-H522 = test: Cytotoxicity against human NCI-H522 cells at 10 uM after 48 hrs by sulforhodamine B assay relative to control; assay type: functional
# SNB-19 = test: Cytotoxicity against human SNB19 cells at 10 uM after 48 hrs by sulforhodamine B assay relative to control; assay type: functional
# U-251 = test: Cytotoxicity against human U251 cells at 10 uM after 48 hrs by sulforhodamine B assay relative to control; assay type: functional
# SW-620 = test: Cytotoxicity against human SW620 cells at 10 uM after 48 hrs by sulforhodamine B assay relative to control; assay type: functional
# UO-31 = test: Cytotoxicity against human UO31 cells at 10 uM after 48 hrs by sulforhodamine B assay relative to control; assay type: functional
# SF-295 = test: Cytotoxicity against human SF295 cells at 10 uM after 48 hrs by sulforhodamine B assay relative to control; assay type: functional
# CCRF-CEM = test: Cytotoxicity against human CCRF-CEM cells at 10 uM after 48 hrs by sulforhodamine B assay relative to control; assay type: functional
# K562 = test: Cytotoxicity against human K562 cells at 10 uM after 48 hrs by sulforhodamine B assay relative to control; assay type: functional
# HOP-62 = test: Cytotoxicity against human HOP62 cells at 10 uM after 48 hrs by sulforhodamine B assay relative to control; assay type: functional
# MDA-MB-231 = test: Cytotoxicity against human MDA-MB-231 cells at 10 uM after 48 hrs by sulforhodamine B assay relative to control; assay type: functional
# NCI-H23 = test: Cytotoxicity against human NCI-H23 cells at 10 uM after 48 hrs by sulforhodamine B assay relative to control; assay type: functional
# RPMI-8226 = test: Cytotoxicity against human RPMI8226 cells at 10 uM after 48 hrs by sulforhodamine B assay relative to control; assay type: functional
# [4] = Cytotoxicity against human Hs 578T cells at 10 uM after 48 hrs by sulforhodamine B assay relative to control; assay type: functional
# SN12C = test: Cytotoxicity against human SN12C cells at 10 uM after 48 hrs by sulforhodamine B assay relative to control; assay type: functional
# SR = test: Cytotoxicity against human SR cells at 10 uM after 48 hrs by sulforhodamine B assay relative to control; assay type: functional
# DU-145 = test: Cytotoxicity against human DU145 cells at 10 uM after 48 hrs by sulforhodamine B assay relative to control; assay type: functional
# MDA-MB-468 = test: Cytotoxicity against human MDA-MB-468 cells at 10 uM after 48 hrs by sulforhodamine B assay relative to control; assay type: functional
# OVCAR-8 = test: Cytotoxicity against human OVCAR8 cells at 10 uM after 48 hrs by sulforhodamine B assay relative to control; assay type: functional
# TK-10 = test: Cytotoxicity against human TK10 cells at 10 uM after 48 hrs by sulforhodamine B assay relative to control; assay type: functional
# Malme-3M = test: Cytotoxicity against human MALME-3M cells at 10 uM after 48 hrs by sulforhodamine B assay relative to control; assay type: functional
# SF-539 = test: Cytotoxicity against human SF539 cells at 10 uM after 48 hrs by sulforhodamine B assay relative to control; assay type: functional
# Homo sapiens = species: Homo sapiens; test: Inhibition of telomerase (unknown origin) at 10 uM TRAP assay
# NCI-H460 = test: Cytotoxicity against human NCI-H460 cells at 10 uM after 48 hrs by sulforhodamine B assay relative to control; assay type: functional
# A549 = test: Cytotoxicity against human A549 cells at 10 uM after 48 hrs by sulforhodamine B assay relative to control; assay type: functional
# SNB-75 = test: Cytotoxicity against human SNB75 cells at 10 uM after 48 hrs by sulforhodamine B assay relative to control; assay type: functional
# CAKI-1 = test: Cytotoxicity against human CAKI-1 cells at 10 uM after 48 hrs by sulforhodamine B assay relative to control; assay type: functional
# HCT-15 = test: Cytotoxicity against human HCT15 cells at 10 uM after 48 hrs by sulforhodamine B assay relative to control; assay type: functional
# MDA-MB-435 = test: Cytotoxicity against human MDA-MB-435 cells at 10 uM after 48 hrs by sulforhodamine B assay relative to control; assay type: functional
# HCC 2998 = test: Cytotoxicity against human HCC2998 cells at 10 uM after 48 hrs by sulforhodamine B assay relative to control; assay type: functional
# SF-268 = test: Cytotoxicity against human SF268 cells at 10 uM after 48 hrs by sulforhodamine B assay relative to control; assay type: functional
smiles,measurement,setting,value
CCCNCC(=O)Nc1ccc2c(c1)C(=O)c1cc(NC(=O)CNCCC)ccc1-2,Activity,[1],88.56%
same,Activity,HCT-116,34.22%
same,Activity,LOX IMVI,63.5%
same,Activity,SK-MEL-2,114.94%
same,Activity,SK-MEL-28,91.46%
same,Activity,OVCAR-4,65.9%
same,Activity,IGROV-1,67.45%
same,Activity,M14,84.8%
same,Activity,KM12,65.12%
same,Activity,RXF 393,64.2%
same,Activity,SK-MEL-5,93.78%
same,Activity,PC-3 [2],63.47%
same,Activity,NCI/ADR-RES,90.61%
same,Activity,UACC-257,113.51%
same,Activity,BT-549,97.53%
same,Activity,UACC-62,108.2%
same,Activity,MOLT-4,41.29%
same,Activity,T47D,100.55%
same,Activity,HT-29,7.11%
same,Activity,ACHN,72.93%
same,Activity,MCF7,42.23%
same,Activity,OVCAR-3,101.73%
same,Activity,HL-60(TB),78.59%
same,Activity,NCI-H322M,55.32%
same,Activity,NCI-H226,104.17%
same,Activity,COLO 205,53.11%
same,Activity,786-0,82.05%
same,IC50,PC-3 [3],5.46 µM
same,Activity,OVCAR-5,115.75%
same,Activity,NCI-H522,63.92%
same,Activity,SNB-19,96.69%
same,Activity,U-251,49.16%
same,Activity,SW-620,33.33%
same,Activity,UO-31,59.44%
same,Activity,SF-295,78.31%
same,Activity,CCRF-CEM,43.54%
same,Activity,K562,1.15%
same,Activity,HOP-62,70.78%
same,Activity,MDA-MB-231,53.48%
same,Activity,NCI-H23,81.96%
same,Activity,RPMI-8226,62.56%
same,Activity,[4],109.04%
same,Activity,SN12C,79.58%
same,Activity,SR,26.93%
same,Activity,DU-145,68.94%
same,Activity,MDA-MB-468,60.47%
same,Activity,OVCAR-8,54.46%
same,Activity,TK-10,101.22%
same,Activity,Malme-3M,111.89%
same,Activity,SF-539,86.19%
same,inhibition,Homo sapiens,inactive
same,Activity,NCI-H460,47.28%
same,Activity,A549,44.21%
same,Activity,SNB-75,90.2%
same,Activity,CAKI-1,84.88%
same,Activity,HCT-15,82.71%
same,Activity,MDA-MB-435,74.91%
same,Activity,HCC 2998,75.34%
same,Activity,SF-268,81.33%
CN1CCN(CCC(=O)Nc2ccc3c(c2)C(=O)c2cc(NC(=O)CCN4CCN(C)CC4)ccc2-3)CC1,Activity,[1],111.18%
same,Activity,HCT-116,100.16%
same,Activity,LOX IMVI,96.43%
same,Activity,SK-MEL-2,109.38%
same,Activity,SK-MEL-28,96.67%
same,Activity,OVCAR-4,99.91%
same,Activity,IGROV-1,102.45%
same,Activity,M14,105.74%
same,Activity,KM12,111.12%
same,Activity,RXF 393,97.03%
same,Activity,SK-MEL-5,107.35%
same,Activity,PC-3 [2],104.35%
same,Activity,NCI/ADR-RES,103.89%
same,Activity,UACC-257,103.02%
same,Activity,BT-549,107.82%
same,Activity,UACC-62,104.21%
same,Activity,MOLT-4,94.59%
same,Activity,T47D,102.07%
same,Activity,HT-29,101.23%
same,Activity,ACHN,100.97%
same,Activity,MCF7,95.72%
same,Activity,OVCAR-3,116.35%
same,Activity,HL-60(TB),103.58%
same,Activity,NCI-H226,98.16%
same,Activity,COLO 205,108.32%
same,Activity,786-0,100.57%
same,IC50,PC-3 [3],> 30 µM
same,Activity,OVCAR-5,104.62%
same,Activity,NCI-H522,86.63%
same,Activity,SNB-19,105.99%
same,Activity,U-251,100.29%
same,Activity,SW-620,105.36%
same,Activity,UO-31,89.26%
same,Activity,CCRF-CEM,97.76%
same,Activity,K562,99.19%
same,Activity,HOP-62,109.22%
same,Activity,MDA-MB-231,115.67%
same,Activity,NCI-H23,96.83%
same,Activity,RPMI-8226,106.48%
same,Activity,[4],102.5%
same,Activity,SN12C,102.94%
same,Activity,SR,92.06%
same,Activity,DU-145,112.6%
same,Activity,MDA-MB-468,88.91%
same,Activity,OVCAR-8,101.48%
same,Activity,TK-10,99.67%
same,Activity,Malme-3M,98.05%
same,Activity,SF-539,111.08%
same,inhibition,Homo sapiens,inactive
same,Activity,NCI-H460,107.13%
same,Activity,A549,106.9%
same,Activity,SNB-75,77.89%
same,Activity,HCT-15,101.35%
same,Activity,HCC 2998,99.57%
same,Activity,SF-268,109.98%
